Data taken from ChEMBL document CHEMBL3817812, “An expeditious four-component domino protocol for the synthesis of novel thiazolo[3,2-a]thiochromeno[4,3-d]pyrimidine derivatives as antibacterial and antibiofilm agents” (Bioorg Med Chem, 2016).
≈ marks a conversion by molar mass, not a printed value. Calls of active or inactive are those of the source. The calls are words filed in the database; no cut-off is given here.

Experiments:
Staphylococcus aureus [1] = test: Induction of ROS accumulation in Staphylococcus aureus MTCC 96 biofilm at 2 ug/ml after 24 hrs by DCFH-DA staining-based fluorometric assay; assay type: functional, organism-based
Staphylococcus aureus [2] = test: Antibacterial activity against Staphylococcus aureus MTCC 96 incubated for 24 hrs by well diffusion method; assay type: functional; conditions: MTCC 96, 24 h
Pseudomonas aeruginosa = test: Antibacterial activity against Pseudomonas aeruginosa MTCC 2453 incubated for 24 hrs by well diffusion method; assay type: functional; conditions: MTCC 2453, 24 h
Staphylococcus aureus [3] = test: Induction of ROS accumulation in Staphylococcus aureus MTCC 96 biofilm at 4 ug/ml after 24 hrs by DCFH-DA staining-based fluorometric assay; assay type: functional, organism-based
Raoultella planticola = test: Antibacterial activity against Klebsiella planticola MTCC 530 incubated for 24 hrs by well diffusion method; assay type: functional; conditions: MTCC 530, 24 h
Staphylococcus aureus [4] = test: Antibacterial activity against Staphylococcus aureus MLS16 MTCC 2940 incubated for 24 hrs by well diffusion method; assay type: functional; conditions: MLS16 MTCC 2940, 24 h
Micrococcus luteus [5] = test: Antibiofilm activity against Micrococcus luteus MTCC 2470 incubated for 24 hrs by crystal violet staining-based assay; assay type: functional, organism-based; conditions: MTCC 2470, 24 h
Staphylococcus aureus [6] = test: Bactericidal activity against Staphylococcus aureus MLS16 MTCC 2940 incubated for 24 hrs by broth dilution method; assay type: functional; conditions: MLS16 MTCC 2940, 24 h
Micrococcus luteus [7] = test: Antibacterial activity against Micrococcus luteus MTCC 2470 incubated for 24 hrs by well diffusion method; assay type: functional; conditions: MTCC 2470, 24 h
Micrococcus luteus [8] = test: Bactericidal activity against Micrococcus luteus MTCC 2470 incubated for 24 hrs by broth dilution method; assay type: functional; conditions: MTCC 2470, 24 h
Staphylococcus aureus [9] = test: Bactericidal activity against Staphylococcus aureus MTCC 96 incubated for 24 hrs by broth dilution method; assay type: functional; conditions: MTCC 96, 24 h
Bacillus subtilis [10] = test: Bactericidal activity against Bacillus subtilis MTCC 121 incubated for 24 hrs by broth dilution method; assay type: functional; conditions: MTCC 121, 24 h
Bacillus subtilis [11] = test: Antibacterial activity against Bacillus subtilis MTCC 121 incubated for 24 hrs by well diffusion method; assay type: functional; conditions: MTCC 121, 24 h
Staphylococcus aureus [12] = test: Antibiofilm activity against Staphylococcus aureus MLS16 MTCC 2940 incubated for 24 hrs by crystal violet staining-based assay; assay type: functional, organism-based; conditions: MLS16 MTCC 2940, 24 h
Escherichia coli = test: Antibacterial activity against Escherichia coli MTCC 739 incubated for 24 hrs by well diffusion method; assay type: functional; conditions: MTCC 739, 24 h
Staphylococcus aureus [13] = test: Antibiofilm activity against Staphylococcus aureus MTCC 96 incubated for 24 hrs by crystal violet staining-based assay; assay type: functional, organism-based; conditions: MTCC 96, 24 h
Bacillus subtilis [14] = test: Antibiofilm activity against Bacillus subtilis MTCC 121 incubated for 24 hrs by crystal violet staining-based assay; assay type: functional, organism-based; conditions: MTCC 121, 24 h

SMILES | Activity (Staphylococcus aureus [1]) | MIC (Staphylococcus aureus [2]) | MIC (Pseudomonas aeruginosa) | Activity (Staphylococcus aureus [3]) | MIC (Raoultella planticola) | MIC (Staphylococcus aureus [4]) | IC50 (Micrococcus luteus [5]) | MBC (Staphylococcus aureus [6]) | MIC (Micrococcus luteus [7]) | MBC (Micrococcus luteus [8]) | MBC (Staphylococcus aureus [9]) | MBC (Bacillus subtilis [10]) | MIC (Bacillus subtilis [11]) | IC50 (Staphylococcus aureus [12]) | MIC (Escherichia coli) | IC50 (Staphylococcus aureus [13]) | IC50 (Bacillus subtilis [14])
O=C(O)c1cn(C2CC2)c2cc(N3CCNCC3)c(F)cc2c1=O [CIPROFLOXACIN] | Active | 0.9 µg/mL (≈ 2.72 µM) | 0.9 µg/mL (≈ 2.72 µM) | Active | 0.9 µg/mL (≈ 2.72 µM) | 0.9 µg/mL (≈ 2.72 µM) | 0.4 µg/mL (≈ 1.21 µM) | 0.9 µg/mL (≈ 2.72 µM) | 0.9 µg/mL (≈ 2.72 µM) | 1.9 µg/mL (≈ 5.73 µM) | 1.9 µg/mL (≈ 5.73 µM) | 0.9 µg/mL (≈ 2.72 µM) | 0.9 µg/mL (≈ 2.72 µM) | 0.4 µg/mL (≈ 1.21 µM) | 0.9 µg/mL (≈ 2.72 µM) | – | –
Clc1ccc(C2C3=C(N=C4SC=C(c5ccccc5)N42)c2ccccc2SC3)cc1 (configuration not stated) | – | > 125 µg/mL | > 125 µg/mL | – | > 125 µg/mL | 15.6 µg/mL (≈ 35.1 µM) | – | – | > 125 µg/mL | – | – | – | > 125 µg/mL | – | > 125 µg/mL | – | –
Cc1ccc(C2=CSC3=NC4=C(CSc5ccccc54)C(c4ccccc4)N23)cc1 (configuration not stated) | Active | 3.9 µg/mL (≈ 9.19 µM) | > 125 µg/mL | Active | > 125 µg/mL | 3.9 µg/mL (≈ 9.19 µM) | 5.3 µg/mL (≈ 12.5 µM) | 7.8 µg/mL (≈ 18.4 µM) | 7.8 µg/mL (≈ 18.4 µM) | 15.6 µg/mL (≈ 36.7 µM) | 7.8 µg/mL (≈ 18.4 µM) | 3.9 µg/mL (≈ 9.19 µM) | 3.9 µg/mL (≈ 9.19 µM) | 2.4 µg/mL (≈ 5.65 µM) | > 125 µg/mL | 2.1 µg/mL (≈ 4.95 µM) | 1.9 µg/mL (≈ 4.47 µM)
Clc1ccc(C2=CSC3=NC4=C(CSc5ccccc54)C(c4ccccc4)N23)cc1 (configuration not stated) | – | > 125 µg/mL | > 125 µg/mL | – | > 125 µg/mL | > 125 µg/mL | – | – | > 125 µg/mL | – | – | – | > 125 µg/mL | – | > 125 µg/mL | – | –
Brc1ccc(C2=CSC3=NC4=C(CSc5ccccc54)C(c4ccccc4)N23)cc1 (configuration not stated) | – | > 125 µg/mL | > 125 µg/mL | – | > 125 µg/mL | > 125 µg/mL | – | – | > 125 µg/mL | – | – | – | > 125 µg/mL | – | > 125 µg/mL | – | –
C1=C(c2ccccc2)N2C(=NC3=C(CSc4ccccc43)C2c2ccccc2)S1 (configuration not stated) | – | 31.2 µg/mL (≈ 76 µM) | > 125 µg/mL | – | > 125 µg/mL | > 125 µg/mL | – | > 125 µg/mL | > 125 µg/mL | > 125 µg/mL | 62.5 µg/mL (≈ 152 µM) | > 125 µg/mL | > 125 µg/mL | – | > 125 µg/mL | – | –
O=c1oc2ccccc2cc1C1=CSC2=NC3=C(CSc4ccccc43)C(c3ccccc3)N12 (configuration not stated) | – | 15.6 µg/mL (≈ 32.6 µM) | > 125 µg/mL | – | > 125 µg/mL | 31.2 µg/mL (≈ 65.2 µM) | – | 62.5 µg/mL (≈ 131 µM) | 31.2 µg/mL (≈ 65.2 µM) | 31.2 µg/mL (≈ 65.2 µM) | 31.2 µg/mL (≈ 65.2 µM) | 62.5 µg/mL (≈ 131 µM) | 31.2 µg/mL (≈ 65.2 µM) | – | > 125 µg/mL | – | –
O=[N+]([O-])c1cccc(C2C3=C(N=C4SC=C(c5ccc(Cl)cc5)N42)c2ccccc2SC3)c1 (configuration not stated) | – | > 125 µg/mL | > 125 µg/mL | – | > 125 µg/mL | > 125 µg/mL | – | – | > 125 µg/mL | – | – | – | > 125 µg/mL | – | > 125 µg/mL | – | –
O=c1oc2ccccc2cc1C1=CSC2=NC3=C(CSc4ccccc43)C(c3cccc([N+](=O)[O-])c3)N12 (configuration not stated) | – | > 125 µg/mL | > 125 µg/mL | – | > 125 µg/mL | > 125 µg/mL | – | – | > 125 µg/mL | – | – | – | > 125 µg/mL | – | > 125 µg/mL | – | –
O=c1oc2ccccc2cc1C1=CSC2=NC3=C(CSc4ccccc43)C(c3ccc(Cl)cc3)N12 (configuration not stated) | – | > 125 µg/mL | > 125 µg/mL | – | > 125 µg/mL | > 125 µg/mL | – | – | > 125 µg/mL | – | – | – | > 125 µg/mL | – | > 125 µg/mL | – | –
Clc1ccc(C2C3=C(N=C4SC=C(c5ccc(Br)cc5)N42)c2ccccc2SC3)cc1 (configuration not stated) | – | 31.2 µg/mL (≈ 59.6 µM) | > 125 µg/mL | – | > 125 µg/mL | > 125 µg/mL | – | > 125 µg/mL | > 125 µg/mL | > 125 µg/mL | 62.5 µg/mL (≈ 119 µM) | 31.2 µg/mL (≈ 59.6 µM) | 31.2 µg/mL (≈ 59.6 µM) | – | > 125 µg/mL | – | –
COc1ccc(C2=CSC3=NC4=C(CSc5ccccc54)C(c4ccc(Cl)cc4)N23)cc1 (configuration not stated) | – | 7.8 µg/mL (≈ 16.4 µM) | > 125 µg/mL | – | > 125 µg/mL | 15.6 µg/mL (≈ 32.8 µM) | – | 31.2 µg/mL (≈ 65.7 µM) | > 125 µg/mL | > 125 µg/mL | 15.6 µg/mL (≈ 32.8 µM) | 62.5 µg/mL (≈ 132 µM) | 62.5 µg/mL (≈ 132 µM) | – | > 125 µg/mL | – | –
Cc1ccc(C2C3=C(N=C4SC=C(c5ccc(Br)cc5)N42)c2ccccc2SC3)cc1 (configuration not stated) | – | > 125 µg/mL | > 125 µg/mL | – | > 125 µg/mL | > 125 µg/mL | – | – | > 125 µg/mL | – | – | – | > 125 µg/mL | – | > 125 µg/mL | – | –
Cc1ccc(C2C3=C(N=C4SC=C(c5cc6ccccc6oc5=O)N42)c2ccccc2SC3)cc1 (configuration not stated) | – | 31.2 µg/mL (≈ 63.3 µM) | > 125 µg/mL | – | > 125 µg/mL | 31.2 µg/mL (≈ 63.3 µM) | – | 31.2 µg/mL (≈ 63.3 µM) | > 125 µg/mL | > 125 µg/mL | 62.5 µg/mL (≈ 127 µM) | > 125 µg/mL | > 125 µg/mL | – | > 125 µg/mL | – | –
O=[N+]([O-])c1ccc(C2=CSC3=NC4=C(CSc5ccccc54)C(c4ccc(Cl)cc4)N23)cc1 (configuration not stated) | – | > 125 µg/mL | > 125 µg/mL | – | > 125 µg/mL | > 125 µg/mL | – | > 125 µg/mL | 15.6 µg/mL (≈ 31.8 µM) | 31.2 µg/mL (≈ 63.7 µM) | > 125 µg/mL | 31.2 µg/mL (≈ 63.7 µM) | 15.6 µg/mL (≈ 31.8 µM) | – | > 125 µg/mL | – | –
